The values below come from ChEMBL document CHEMBL1201862, “PubChem BioAssay data set” (2004).

Some test systems named below: SNB-19; SK-MEL-5; OVCAR-3; K562; HOP-62; UO-31; ACHN; OVCAR-4; SF-295; SF-268; BT-549; HCC 2998; LOX IMVI; HCT-116; T47D; NCI-H460; OVCAR-5; RPMI-8226; MDA-MB-435; MDA-MB-231.
Common to all, as to assay: NCI anticancer screen, dose series, 48 h

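Five compound concentrations were applied to cells in 96-well plates for 48 hours; endpoints were derived by simple linear interpolation of the resulting dose-response curve. GI50: concentration for 50% inhibition of growth.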 Calls of active or inactive are those of the source. Rule as the data show it: active = GI50 up to about 1.1 µM and inactive = higher. Where only a bound is given, the exact number is not on record here.

For the compound `C#C[C@]1(O)CC[C@H]2[C@@H]3CCC4=C/C(=N/OC(=O)c5cccc6c(=O)c7ccccc7[nH]c56)CC[C@@H]4[C@H]3CC[C@@]21C`, the GI50 with SNB-19 is > 100 µM (inactive); in the test with SK-MEL-5, 20.2 µM (inactive); in the test on OVCAR-3, 64.1 µM (inactive); in the test with K562, 17.3 µM (inactive); in the test on HOP-62, > 100 µM (inactive); in the test with UO-31 it was 53.5 µM (inactive). In addition, the GI50 with ACHN is 66.1 µM (inactive); in the test with OVCAR-4 it was > 100 µM (inactive); in the test with SF-295, 92 µM (inactive); in the test on SF-268 it was 80 µM (inactive); in the test with BT-549, 37.2 µM (inactive); with HCC 2998 it was 50.5 µM (inactive). Besides, the GI50 with LOX IMVI was 34 µM (inactive); in the test on HCT-116 it was 48.5 µM (inactive); in the test with T47D, 29 µM (inactive); in the test with NCI-H460, 37.2 µM (inactive); with OVCAR-5, > 100 µM (inactive); in the test on RPMI-8226, 13.6 µM (inactive). Moreover, the values for the GI50 in the test on MDA-MB-435 and in the test on MDA-MB-231 were 43.1 µM (inactive) and 51.8 µM (inactive), respectively.
For `CC1=C(/C=C/C(C)=C/C=C/C(C)=C/C(=O)OCC2OC(n3cc(F)c(=O)[nH]c3=O)CC2OC(=O)/C=C(C)/C=C/C=C(C)/C=C/C2=C(C)CCCC2(C)C)C(C)(C)CCC1` (centres undefined), the GI50 is 3.1 µM (inactive) in the test on SNB-19; 3.08 µM (inactive) in the test with SK-MEL-5; 9.75 µM (inactive) in the test with OVCAR-3; 4.66 µM (inactive) in the test with K562; 0.306 µM (active) in the test on HOP-62; 0.94 µM (active) with UO-31. In addition, the GI50 is 0.418 µM (active) in the test with ACHN; > 32.1 µM (inactive) in the test on OVCAR-4; 0.301 µM (active) in the test with SF-295; 0.618 µM (active) in the test with SF-268; 29.6 µM (inactive) in the test on BT-549; 0.132 µM (active) with HCC 2998. In addition, the GI50 with LOX IMVI is 3.48 µM (inactive); in the test on HCT-116, 2.82 µM (inactive); with T47D, 15.7 µM (inactive); with NCI-H460 it was 0.0659 µM (active); in the test with OVCAR-5 it was > 45.3 µM (inactive); in the test on RPMI-8226, 0.796 µM (active). For the same compound, the GI50 was 13.3 µM (inactive) with MDA-MB-435 and 30.1 µM (inactive) in the test with MDA-MB-231.
For the compound `C/C(=N\N)C(CN(C)C)C(c1ccccc1)c1c(O)c2ccccc2oc1=O` (centres undefined), the GI50 is > 100 µM (inactive) in the test on SNB-19; > 100 µM (inactive) in the test with SK-MEL-5; > 100 µM (inactive) with OVCAR-3; > 60 µM (inactive) in the test with K562; > 100 µM (inactive) with HOP-62; > 100 µM (inactive) in the test on UO-31. Moreover, the GI50 with ACHN was 99.5 µM (inactive); with OVCAR-4, > 65.6 µM (inactive); in the test with SF-295, > 86.3 µM (inactive); with SF-268, > 100 µM (inactive); in the test with BT-549, > 100 µM (inactive); with HCC 2998 it was > 100 µM (inactive). In addition, the GI50 in the test with LOX IMVI is > 94.4 µM (inactive); in the test on HCT-116, > 80 µM (inactive); in the test on T47D it was > 10 µM (inactive); in the test with NCI-H460, > 100 µM (inactive); in the test on OVCAR-5, > 100 µM (inactive); in the test on RPMI-8226 it was 97.3 µM (inactive). The GI50 in the test with MDA-MB-435 and in the test on MDA-MB-231 was > 100 µM (inactive) throughout.
Consider `CC1=C(C)C(=O)C(C2=C(C3=CC(=O)C(C)=C(C)C3=O)C(=O)c3ccccc3C2=O)=CC1=O`, for which the GI50 in the test with SNB-19 was 11.2 µM (inactive); in the test with SK-MEL-5, 4.53 µM (inactive); in the test on OVCAR-3 it was 2.68 µM (inactive); in the test with K562, 2.77 µM (inactive); with HOP-62, 14.7 µM (inactive); in the test with UO-31 it was 1.93 µM (inactive). For the same compound, the GI50 is 2.31 µM (inactive) with ACHN; 1.7 µM (inactive) with OVCAR-4; 12.1 µM (inactive) in the test with SF-295; 3.26 µM (inactive) in the test with SF-268; 2.57 µM (inactive) in the test with BT-549; 4.66 µM (inactive) in the test with HCC 2998. The GI50 with LOX IMVI was 2.41 µM (inactive); with HCT-116, 2.14 µM (inactive); with T47D, 2.96 µM (inactive); in the test with NCI-H460 it was 14.2 µM (inactive); in the test on OVCAR-5 it was 13 µM (inactive); in the test on RPMI-8226, 1.3 µM (inactive). Moreover, the values for the GI50 with MDA-MB-435 and with MDA-MB-231 were 1.5 µM (inactive) and 2.37 µM (inactive), respectively.
In the case of `COC(=O)C1Cc2ccc(O)c(O)c2CN1` (centres undefined), the GI50 is 38.3 µM (inactive) with SNB-19; 15.1 µM (inactive) in the test with SK-MEL-5; 35.5 µM (inactive) in the test with OVCAR-3; 28.8 µM (inactive) in the test with K562; > 100 µM (inactive) in the test with HOP-62; 22.5 µM (inactive) in the test with UO-31. In addition, the GI50 is > 100 µM (inactive) with ACHN; 19.3 µM (inactive) in the test with OVCAR-4; 7.41 µM (inactive) with SF-295; > 10 µM (inactive) in the test on SF-268; 18.3 µM (inactive) in the test on BT-549; > 100 µM (inactive) with HCC 2998. Also, the GI50 is 14.8 µM (inactive) with LOX IMVI; 23.7 µM (inactive) in the test on HCT-116; 71.9 µM (inactive) in the test with T47D; 56.9 µM (inactive) in the test on NCI-H460; 27.5 µM (inactive) with OVCAR-5; 24.2 µM (inactive) in the test on RPMI-8226. The GI50 with MDA-MB-435 is 16.7 µM (inactive); in the test on MDA-MB-231, 19.8 µM (inactive).
For the compound `Nc1c2c(nc3ccccc13)CCCc1ccccc1-2`, the GI50 with SNB-19 was 11.3 µM (inactive); in the test with SK-MEL-5 it was 8.45 µM (inactive); in the test with OVCAR-3 it was 27 µM (inactive); in the test on K562, 5.7 µM (inactive); in the test on HOP-62, 12.4 µM (inactive); with UO-31, 10.5 µM (inactive). The GI50 was 10.3 µM (inactive) in the test on ACHN; 20.1 µM (inactive) with OVCAR-4; 7.23 µM (inactive) in the test with SF-295; 16.9 µM (inactive) in the test with SF-268; 28.8 µM (inactive) with BT-549; 1.83 µM (inactive) in the test with HCC 2998. Also, the GI50 with LOX IMVI is 8.69 µM (inactive); with HCT-116, 4.78 µM (inactive); in the test on T47D, 11 µM (inactive); in the test with NCI-H460, 2.81 µM (inactive); in the test on OVCAR-5, 12.4 µM (inactive); in the test on RPMI-8226 it was 5.32 µM (inactive). Moreover, the GI50 with MDA-MB-435 is 11.3 µM (inactive); with MDA-MB-231, 5.38 µM (inactive).
For the compound `O=C1C(Cl)=C(NCCc2ccc(O)cc2)C(=O)c2c(O)ccc(O)c21`, the GI50 in the test on SNB-19 was > 10 µM (inactive); with SK-MEL-5, 3.72 µM (inactive); in the test with OVCAR-3, 4.8 µM (inactive); in the test with K562, > 10 µM (inactive); in the test with HOP-62, 6.56 µM (inactive); with ACHN it was > 10 µM (inactive). The GI50 in the test on OVCAR-4 is > 10 µM (inactive); with SF-295, 9.82 µM (inactive); with SF-268, 9.12 µM (inactive); in the test with BT-549, > 10 µM (inactive); with HCC 2998, > 10 µM (inactive); in the test on LOX IMVI, 7.66 µM (inactive). Besides, the GI50 was 8.2 µM (inactive) in the test on HCT-116; > 10 µM (inactive) with T47D; 7.46 µM (inactive) in the test on NCI-H460; > 10 µM (inactive) in the test with OVCAR-5; > 10 µM (inactive) in the test with RPMI-8226; 4.36 µM (inactive) in the test on MDA-MB-435. In the test with MDA-MB-231, the GI50 was > 10 µM (inactive).
